# Assay results reported in patent US12065442B2, “Tropomyosin receptor kinase (TRK) degradation compounds and methods of use” (Cullgen (Shanghai), Inc., priority 2018, dated 2024).
# “Also recorded” adds a separate entry of the source.
# Tested on: KM12 cells
# Test: Cell viability assay (CellTiter-Glo) in KM12 cells
# Assay type: cell-based
# Details: 500 nM, 12-point 2-fold serial dilution, 3 days (FIG. 4A)
row,Structure (SMILES),viability of KM12 cells
1,"O=C1CCC(N2C(=O)c3cccc(NCCOCCOCCOCCC(=O)N4CCN(c5ccc(C(=O)Nc6n[nH]c7ccc(Cc8cc(F)cc(F)c8)cc67)c(NC6CCOCC6)c5)CC4)c3C2=O)C(=O)N1 (centres unmarked) [CPD-057, N-(5-(3,5-Difluorobenzyl)-1H-indazol-3-yl)-4-(4-(3-(2-(2-(2-((2-(2,6-dioxopiperidin-3-yl)-1,3-dioxoisoindolin-4-yl)amino)ethoxy)ethoxy)ethoxy)propanoyl)piperazin-1-yl)-2-((tetrahydro-2H-pyran-4-yl)amino)benzamide]",inhibited the viability; also recorded: dose-dependently suppressed viability

# Same assay, conditions: Homo sapiens, 72 h; Table 2; KM12 cell viability, CellTiter-Glo, 3 days; read-out: IC50
row,Structure (SMILES),IC50 [nM]
1,"O=C1CCC(N2C(=O)c3cccc(NCCOCCOCCOCCC(=O)N4CCN(c5ccc(C(=O)Nc6n[nH]c7ccc(Cc8cc(F)cc(F)c8)cc67)c(NC6CCOCC6)c5)CC4)c3C2=O)C(=O)N1 (centres unmarked) [CPD-057, N-(5-(3,5-Difluorobenzyl)-1H-indazol-3-yl)-4-(4-(3-(2-(2-(2-((2-(2,6-dioxopiperidin-3-yl)-1,3-dioxoisoindolin-4-yl)amino)ethoxy)ethoxy)ethoxy)propanoyl)piperazin-1-yl)-2-((tetrahydro-2H-pyran-4-yl)amino)benzamide]",6.4
2,"Cc1ncsc1-c1ccc(CNC(=O)[C@@H]2C[C@@H](O)CN2C(=O)[C@@H](NC(=O)COCCOCC(=O)N2CCN(c3cccc(-c4cnc5ccc(N6CCC[C@@H]6c6cccc(F)c6)nn45)n3)CC2)C(C)(C)C)cc1 [CPD-002, (2S,4R)-1-((S)-2-(2-(2-(2-(4-(6-(6-((R)-2-(3-Fluorophenyl)pyrrolidin-1-yl)imidazo[1,2-b]pyridazin-3-yl)pyridin-2-yl)piperazin-1-yl)-2-oxoethoxy)ethoxy)acetamido)-3,3-dimethylbutanoyl)-4-hydroxy-N-(4-(4-methylthiazol-5-yl)benzyl)pyrrolidine-2-carboxamide]",> 1000
3,"O=C1CCC(N2C(=O)c3cccc(NCCOCCOCCOCCOCCOCCC(=O)N4CCN(c5ccc(C(=O)Nc6n[nH]c7ccc(Cc8cc(F)cc(F)c8)cc67)c(NC6CCOCC6)c5)CC4)c3C2=O)C(=O)N1 (centres unmarked) [CPD-054, N-(5-(3,5-difluorobenzyl)-1H-indazol-3-yl)-4-(4-(1-((2-(2,6-dioxopiperidin-3-yl)-1,3-dioxoisoindolin-4-yl)amino)-3,6,9,12,15-pentaoxaoctadecan-18-oyl)piperazin-1-yl)-2-((tetrahydro-2H-pyran-4-yl)amino)benzamide]",13
4,"O=C1CCC(N2C(=O)c3cccc(NCCCCCCCC(=O)N4CCN(c5cccc(-c6cnc7ccc(N8CCC[C@@H]8c8cccc(F)c8)nn67)n5)CC4)c3C2=O)C(=O)N1 (stereo partly drawn) [CPD-024, 2-(2,6-Dioxopiperidin-3-yl)-4-((8-(4-(6-(6-((R)-2-(3-fluorophenyl)pyrrolidin-1-yl)imidazo[1,2-b]pyridazin-3-yl)pyridin-2-yl)piperazin-1-yl)-8-oxooctyl)amino)isoindoline-1,3-dione]",10
5,"O=C1CCC(N2C(=O)c3cccc(NCCC(=O)N4CCN(c5ccc(C(=O)Nc6n[nH]c7ccc(Cc8cc(F)cc(F)c8)cc67)c(NC6CCOCC6)c5)CC4)c3C2=O)C(=O)N1 (centres unmarked) [CPD-051, N-(5-(3,5-difluorobenzyl)-1H-indazol-3-yl)-4-(4-(3-((2-(2,6-dioxopiperidin-3-yl)-1,3-dioxoisoindolin-4-yl)amino)propanoyl)piperazin-1-yl)-2-((tetrahydro-2H-pyran-4-yl)amino)benzamide]",11
6,"Cc1ncsc1-c1ccc(CNC(=O)[C@@H]2C[C@@H](O)CN2C(=O)[C@@H](NC(=O)CCCCCCCCC(=O)N2CCN(c3cccc(-c4cnc5ccc(N6CCC[C@@H]6c6cccc(F)c6)nn45)n3)CC2)C(C)(C)C)cc1 [CPD-017, (2S,4R)-1-((S)-2-(10-(4-(6-(6-((R)-2-(3-Fluorophenyl)pyrrolidin-1-yl)imidazo[1,2-b]pyridazin-3-yl)pyridin-2-yl)piperazin-1-yl)-10-oxodecanamido)-3,3-dimethylbutanoyl)-4-hydroxy-N-(4-(4-methylthiazol-5-yl)benzyl)pyrrolidine-2-carboxamide]",145
7,"Cc1ncsc1-c1ccc(CNC(=O)[C@@H]2C[C@@H](O)CN2C(=O)[C@@H](NC(=O)COCC(=O)N2CCN(c3ccc(C(=O)Nc4n[nH]c5ccc(Cc6cc(F)cc(F)c6)cc45)c(NC4CCOCC4)c3)CC2)C(C)(C)C)cc1 [CPD-045, (2S,4R)-1-((S)-2-(2-(2-(4-(4-((5-(3,5-Difluorobenzyl)-1H-indazol-3-yl)carbamoyl)-3-((tetrahydro-2H-pyran-4-yl)amino)phenyl)piperazin-1-yl)-2-oxoethoxy)acetamido)-3,3-dimethylbutanoyl)-4-hydroxy-N-(4-(4-methylthiazol-5-yl)benzyl)pyrrolidine-2-carboxamide]",> 1000

# Same assay, conditions: Homo sapiens, 72 h; Table 3; KM12 cell viability, CellTiter-Glo, 3 days; read-out: IC50
row,Structure (SMILES),IC50 [nM]
1,"O=C(CN1CCN(c2cccc(-c3cnc4ccc(N5CCC[C@@H]5c5cccc(F)c5)nn34)n2)CC1)NCCOCCOCCNc1cccc2c1C(=O)N(C1CCC(=O)NC1=O)C2=O (stereo partly drawn) [TR-105, N-(2-(2-(2-((2-(2,6-dioxopiperidin-3-yl)-1,3-dioxoisoindolin-4-yl)amino)ethoxy)ethoxy)ethyl)-2-(4-(6-(6-((R)-2-(3-fluorophenyl)pyrrolidin-1-yl)imidazo[1,2-b]pyridazin-3-yl)pyridin-2-yl)piperazin-1-yl)acetamide]",10.1
2,"O=C(CN1CCN(c2ccc(C(=O)Nc3n[nH]c4ccc(Cc5cc(F)cc(F)c5)cc34)c(NC3CCOCC3)c2)CC1)NCCNc1ccc2c(c1)C(=O)N(C1CCC(=O)NC1=O)C2=O (centres unmarked) [TR-165, N-(5-(3,5-Difluorobenzyl)-1H-indazol-3-yl)-4-(4-(2-((2-((2-(2,6-dioxopiperidin-3-yl)-1,3-dioxoisoindolin-5-yl)amino)ethyl)amino)-2-oxoethyl)piperazin-1-yl)-2-((tetrahydro-2H-pyran-4-yl)amino)benzamide]",3.5
3,"O=C1CCC(N2C(=O)c3ccc(NCCCCCC(=O)N4CCN(c5ccc(C(=O)Nc6n[nH]c7ccc(Cc8cc(F)cc(F)c8)cc67)c(NC6CCOCC6)c5)CC4)cc3C2=O)C(=O)N1 (centres unmarked) [TR-138, N-(5-(3,5-Difluorobenzyl)-1H-indazol-3-yl)-4-(4-(6-((2-(2,6-dioxopiperidin-3-yl)-1,3-dioxoisoindolin-5-yl)amino)hexanoyl)piperazin-1-yl)-2-((tetrahydro-2H-pyran-4-yl)amino)benzamide]",31.1
4,"O=C1CCC(N2C(=O)c3ccc(NC4CCN(c5cccc(-c6cnc7ccc(N8CCC[C@@H]8c8cccc(F)c8)nn67)n5)CC4)cc3C2=O)C(=O)N1 (stereo partly drawn) [TR-174, 2-(2,6-dioxopiperidin-3-yl)-5-((1-(6-(6-((R)-2-(3-fluorophenyl)pyrrolidin-1-yl)imidazo[1,2-b]pyridazin-3-yl)pyridin-2-yl)piperidin-4-yl)amino)isoindoline-1,3-dione]",18.7
5,"O=C1CCC(N2C(=O)c3ccc(NCCOCCN4CCN(c5cccc(-c6cnc7ccc(N8CCC[C@@H]8c8cccc(F)c8)nn67)n5)CC4)cc3C2=O)C(=O)N1 (stereo partly drawn) [TR-176, 2-(2,6-Dioxopiperidin-3-yl)-5-((2-(2-(4-(6-(6-((R)-2-(3-fluorophenyl)pyrrolidin-1-yl)imidazo[1,2-b]pyridazin-3-yl)pyridin-2-yl)piperazin-1-yl)ethoxy)ethyl)amino)isoindoline-1,3-dione]",18
6,"O=C1CCC(N2Cc3cc(CCCN4CCN(c5cccc(-c6cnc7ccc(N8CCC[C@@H]8c8cccc(F)c8)nn67)n5)CC4)ccc3C2=O)C(=O)N1 (stereo partly drawn) [TR-186, 3-(5-(3-(4-(6-(6-((R)-2-(3-fluorophenyl)pyrrolidin-1-yl)imidazo[1,2-b]pyridazin-3-yl)pyridin-2-yl)piperazin-1-yl)propyl)-1-oxoisoindolin-2-yl)piperidine-2,6-dione]",5.8
7,"O=C(CN1CCN(c2ccc(C(=O)Nc3n[nH]c4ccc(Cc5cc(F)cc(F)c5)cc34)c(NC3CCOCC3)c2)CC1)NCCCCCCCNc1ccc2c(c1)C(=O)N(C1CCC(=O)NC1=O)C2=O (centres unmarked) [TR-157, N-(5-(3,5-Difluorobenzyl)-1H-indazol-3-yl)-4-(4-(2-((7-((2-(2,6-dioxopiperidin-3-yl)-1,3-dioxoisoindolin-5-yl)amino)heptyl)amino)-2-oxoethyl)piperazin-1-yl)-2-((tetrahydro-2H-pyran-4-yl)amino)benzamide]",8.3
8,"O=C(CN1CCN(c2cccc(-c3cnc4ccc(N5CCC[C@@H]5c5cccc(F)c5)nn34)n2)CC1)NCCCCCNc1ccc2c(c1)C(=O)N(C1CCC(=O)NC1=O)C2=O (stereo partly drawn) [TR-131, N-(5-((2-(2,6-dioxopiperidin-3-yl)-1,3-dioxoisoindolin-5-yl)amino)pentyl)-2-(4-(6-(6-((R)-2-(3-fluorophenyl)pyrrolidin-1-yl)imidazo[1,2-b]pyridazin-3-yl)pyridin-2-yl)piperazin-1-yl)acetamide]",2.7

# Same assay, conditions: Homo sapiens, 72 h; Table 4; KM12 cell viability, CellTiter-Glo, 3 days; read-out: IC50
row,Structure (SMILES),IC50 [nM]
1,"O=C1CCC(N2Cc3cc(NC4CCN(c5cccc(-c6cnc7ccc(N8CCC[C@@H]8c8cccc(F)c8)nn67)n5)CC4)ccc3C2=O)C(=O)N1 (stereo partly drawn) [TR-212, 3-(5-((1-(6-(6-((R)-2-(3-fluorophenyl)pyrrolidin-1-yl)imidazo[1,2-b]pyridazin-3-yl)pyridin-2-yl)piperidin-4-yl)amino)-1-oxoisoindolin-2-yl)piperidine-2,6-dione]",15.8
2,"O=C1CCC(N2C(=O)c3ccc(N4CC(CN5CCN(c6ccc(C(=O)Nc7n[nH]c8ccc(Cc9cc(F)cc(F)c9)cc78)c(NC7CCOCC7)c6)CC5)C4)cc3C2=O)C(=O)N1 (centres unmarked) [TR-231, N-(5-(3,5-Difluorobenzyl)-1H-indazol-3-yl)-4-(4-((1-(2-(2,6-dioxopiperidin-3-yl)-1,3-dioxoisoindolin-5-yl)azetidin-3-yl)methyl)piperazin-1-yl)-2-((tetrahydro-2H-pyran-4-yl)amino)benzamide]",3
3,"Cn1c(=O)n(C2CCC(=O)NC2=O)c2ccc(NCCCN3CCN(c4cccc(-c5cnc6ccc(N7CCC[C@@H]7c7cccc(F)c7)nn56)n4)CC3)cc21 (stereo partly drawn) [TR-221, 3-(5-((3-(4-(6-(6-((R)-2-(3-Fluorophenyl)pyrrolidin-1-yl)imidazo[1,2-b]pyridazin-3-yl)pyridin-2-yl)piperazin-1-yl)propyl)amino)-3-methyl-2-oxo-2,3-dihydro-1H-benzo[d]imidazol-1-yl)piperidine-2,6-dione]",8.5
4,"O=C1CCC(n2c(=O)n(CCCN3CCN(c4cccc(-c5cnc6ccc(N7CCC[C@@H]7c7cccc(F)c7)nn56)n4)CC3)c3ccccc32)C(=O)N1 (stereo partly drawn) [TR-228, 3-(3-(3-(4-(6-(6-((R)-2-(3-Fluorophenyl)pyrrolidin-1-yl)imidazo[1,2-b]pyridazin-3-yl)pyridin-2-yl)piperazin-1-yl)propyl)-2-oxo-2,3-dihydro-1H-benzo[d]imidazol-1-yl)piperidine-2,6-dione]",56.3
